The results in this text go back to PubChem BioAssay (NCI).

Molecules are shown by their SMILES. Values joined by “and” are separate entries in the source; they are usually repeats but may differ in a detail not shown here. Identical values can stand only once.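 1) Cells in 96-well plates. 2) Compound, 48 h, 5 concentrations. 3) Linear interpolation between surrounding doses. 4) Unreached endpoint = highest concentration. GI50 marks 50% less growth. The concentration for full growth arrest is given as TGI.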

Test systems include A549 NSCLC; ACHN renal; HCC-2998 colon; HCT-15 colon; MOLT-4 leukemia; OVCAR-5 ovarian; SK-MEL-2 melanoma; SK-MEL-28 melanoma.
Assay in all cases: growth of human tumour cells (NCI), 48 h

In the case of `COc1cccc(C(=O)N2CCc3ccccc32)c1OC`, the TGI in the test with A549 NSCLC was greater than 100 µM; in the test with ACHN renal it was greater than 100 µM; in the test with HCC-2998 colon it was greater than 100 µM; in the test with HCT-15 colon it was 61.9 µM; with MOLT-4 leukemia, 78.7 µM; with OVCAR-5 ovarian it was greater than 100 µM. The TGI in the test on SK-MEL-2 melanoma and in the test on SK-MEL-28 melanoma was greater than 100 µM throughout.

In the case of `COc1c(C(=O)O)oc2c(OC)cccc12`, the TGI with A549 NSCLC, with ACHN renal, with HCC-2998 colon, in the test with HCT-15 colon, in the test on MOLT-4 leukemia and in the test on OVCAR-5 ovarian was greater than 100 µM each time. Further, the TGI with SK-MEL-2 melanoma and in the test with SK-MEL-28 melanoma was greater than 100 µM each time.

On to `COc1ccc2c(c1OC)C1=C(C2=O)c2cc3c(cc2CCN1)OCO3`, for which the TGI in the test with A549 NSCLC was greater than 100 µM; in the test on ACHN renal, greater than 100 µM; in the test on HCC-2998 colon it was 75.5 µM; with HCT-15 colon, greater than 100 µM; with MOLT-4 leukemia it was 83.9 µM; with OVCAR-5 ovarian it was 97.4 µM. For the same compound, the TGI with SK-MEL-2 melanoma was 66.3 µM; in the test on SK-MEL-28 melanoma, greater than 100 µM.

As for `Cc1c(C(=O)c2ccccc2C(=O)O)c2ccccc2n1C`, the TGI in the test with A549 NSCLC, in the test with ACHN renal, in the test on HCC-2998 colon, with HCT-15 colon, with MOLT-4 leukemia and with OVCAR-5 ovarian was greater than 100 µM throughout. Moreover, the TGI with SK-MEL-2 melanoma and in the test with SK-MEL-28 melanoma was greater than 100 µM in each case.

For `CC1(C)OC(=O)C=C([O-])O1.CC1(C)OC(=O)C=C([O-])O1.O=S(=O)([O-])c1ccc([O-])c2ncccc12.O=S(=O)([O-])c1ccc([O-])c2ncccc12.[Ti+4]`, the GI50 in the test with A549 NSCLC is 48.6 µM; in the test on ACHN renal, 50.3 µM; with HCT-15 colon, 99.7 µM; with MOLT-4 leukemia, 47.8 µM; in the test on OVCAR-5 ovarian it was 25.9 µM; with SK-MEL-2 melanoma, greater than 100 µM. In addition, in the test with SK-MEL-28 melanoma, the GI50 was greater than 100 µM. Besides, the TGI was greater than 100 µM in the test on A549 NSCLC; greater than 100 µM with ACHN renal; greater than 100 µM in the test on HCT-15 colon; greater than 100 µM in the test on MOLT-4 leukemia; 63.1 µM in the test on OVCAR-5 ovarian; greater than 100 µM in the test on SK-MEL-2 melanoma. Also, the TGI in the test on SK-MEL-28 melanoma is greater than 100 µM.

`CN1c2ccccc2N(C)C2C1N(C)c1ccccc1N2C` (configuration not stated): the TGI is greater than 100 µM in the test on A549 NSCLC; greater than 100 µM with ACHN renal; 30.9 µM with HCC-2998 colon; 9.69 µM in the test on MOLT-4 leukemia; greater than 100 µM in the test with OVCAR-5 ovarian; 69.6 µM in the test on SK-MEL-2 melanoma. Moreover, in the test on SK-MEL-28 melanoma, the TGI amounted to 17.6 µM.

Consider `N=c1nnc(=O)c2c(s1)-n1ncc(C(=O)O)c1NN2`, for which the TGI with A549 NSCLC, in the test on MOLT-4 leukemia, in the test with OVCAR-5 ovarian and in the test with SK-MEL-28 melanoma was greater than 100 µM in each case.

For `CO/C1=C\C(C)=C\C(C)C(O)C(C)C/C(C)=C/C=C/C(OC)C(C(C)C(O)C(C)C2(O)CC(O)C(C)C(C(C)C)O2)OC1=O` (configuration not stated), the TGI in the test with A549 NSCLC is 0.0222 µM and 0.0105 µM; in the test on ACHN renal it was 13.2 µM; with HCC-2998 colon, 12.2 µM; with HCT-15 colon, 11.2 µM; with MOLT-4 leukemia, 11.7 µM; with SK-MEL-2 melanoma, 0.0141 µM and 0.0178 µM. In the test on SK-MEL-28 melanoma, this compound came in with a TGI of 23.5 µM.

As for `CC(=O)O[C@H]1CC[C@@]2(C)C(=CC[C@H]3C4=CC=C(C(C)=O)[C@@]4(C)CCC32)C1` (some centres not stated), the TGI in the test on A549 NSCLC, with ACHN renal, in the test with HCC-2998 colon, in the test on HCT-15 colon, in the test with MOLT-4 leukemia and in the test on OVCAR-5 ovarian was greater than 100 µM throughout. The TGI with SK-MEL-28 melanoma is greater than 100 µM.

As to `CCNC(=O)C#CC(=O)NCC`, the GI50 in the test with A549 NSCLC, with ACHN renal, with HCC-2998 colon, with HCT-15 colon, in the test with MOLT-4 leukemia and with OVCAR-5 ovarian was greater than 10 µM throughout. For the same compound, the figures for the GI50 with SK-MEL-2 melanoma and in the test on SK-MEL-28 melanoma were greater than 10 µM and greater than 100 µM, respectively. Further, the TGI in the test with A549 NSCLC is greater than 100 µM; with ACHN renal, greater than 100 µM; with HCC-2998 colon, greater than 100 µM; in the test on HCT-15 colon, greater than 61.4 µM; in the test with MOLT-4 leukemia, greater than 100 µM; in the test with OVCAR-5 ovarian, greater than 100 µM. Besides, the TGI with SK-MEL-2 melanoma and in the test with SK-MEL-28 melanoma was greater than 100 µM each time.

Take `CN(CN1C(=O)C2Cc3ccccc3CN2C1=O)c1ccccn1` (configuration not stated): the TGI with A549 NSCLC, in the test with ACHN renal, in the test with HCC-2998 colon, in the test with HCT-15 colon, with MOLT-4 leukemia and in the test on OVCAR-5 ovarian was greater than 100 µM each time. Further, the TGI in the test with SK-MEL-2 melanoma and in the test with SK-MEL-28 melanoma was greater than 100 µM throughout.

Turning to `CN(C)C(N)=NC#N`, the TGI is greater than 100 µM in the test on A549 NSCLC; greater than 100 µM in the test with ACHN renal; greater than 100 µM with HCC-2998 colon; 34.8 µM in the test on HCT-15 colon; greater than 100 µM with MOLT-4 leukemia; greater than 100 µM with OVCAR-5 ovarian. Besides, the TGI with SK-MEL-2 melanoma and in the test with SK-MEL-28 melanoma was greater than 100 µM in each case.

For `COc1ccc(C(N)=O)cc1N=NN(C)C`, the TGI in the test on A549 NSCLC, in the test with ACHN renal, with HCC-2998 colon, in the test with HCT-15 colon, in the test on MOLT-4 leukemia and in the test with OVCAR-5 ovarian was greater than 100 µM each time. Besides, the TGI in the test on SK-MEL-2 melanoma and in the test on SK-MEL-28 melanoma was greater than 100 µM in each case.

Take `Cc1c(C(=O)NCCO)[n+](=O)c2cc(Cl)ccc2n1[O-]`: the TGI in the test on A549 NSCLC, in the test on ACHN renal, in the test with HCC-2998 colon, in the test on HCT-15 colon, with MOLT-4 leukemia and in the test with OVCAR-5 ovarian was greater than 100 µM throughout. In the test on SK-MEL-28 melanoma, the TGI is greater than 100 µM.

On to `COC1OC(CO)C(O)C(O)C1Br` (configuration not stated), for which the TGI in the test with A549 NSCLC, in the test on ACHN renal, with HCC-2998 colon, in the test on HCT-15 colon, in the test on MOLT-4 leukemia and in the test with OVCAR-5 ovarian was greater than 100 µM in each case. In the test with SK-MEL-28 melanoma, this compound yielded a TGI greater than 100 µM.

On to `Cc1nc2c(n1C(C)(C)C)C(=O)c1ccccc1C2=O`, for which the TGI with A549 NSCLC, with ACHN renal, in the test on HCC-2998 colon, with HCT-15 colon, with MOLT-4 leukemia and in the test with SK-MEL-2 melanoma was greater than 100 µM in each case. The TGI in the test with SK-MEL-28 melanoma was greater than 100 µM.

As to `Cc1ccc(S(=O)(=O)NC(=O)NC23CC4CC(CC(F)(C4)C2)C3)cc1`, the TGI with A549 NSCLC, in the test on ACHN renal, in the test with HCC-2998 colon, in the test on MOLT-4 leukemia, in the test with OVCAR-5 ovarian and in the test with SK-MEL-2 melanoma was greater than 100 µM throughout. In the test with SK-MEL-28 melanoma, this compound showed a TGI greater than 100 µM.

For `COCC(=O)CP(=O)(OC)OC`, the TGI in the test with A549 NSCLC, in the test with ACHN renal, with HCT-15 colon, in the test with MOLT-4 leukemia, in the test on OVCAR-5 ovarian and in the test on SK-MEL-2 melanoma was greater than 100 µM in each case. The same compound returned a TGI in the test on SK-MEL-28 melanoma greater than 100 µM.

For `O=c1cc2ccccc2nn1Cc1ccccc1Cl`, the TGI in the test with A549 NSCLC, in the test with ACHN renal, with HCC-2998 colon, with HCT-15 colon, with OVCAR-5 ovarian and with SK-MEL-2 melanoma was greater than 100 µM each time. In the test with SK-MEL-28 melanoma, this compound showed a TGI greater than 100 µM.

Turning to `Cn1c(=O)nc2n(-c3cccc(F)c3)c3ccccc3nc-2c1=O`, the TGI with A549 NSCLC came to 53.5 µM; in the test on ACHN renal, 68.2 µM; with HCC-2998 colon, 39.6 µM; with HCT-15 colon it was 52.3 µM; in the test with MOLT-4 leukemia, 54.1 µM; in the test with OVCAR-5 ovarian, 74.4 µM. This compound also displayed a TGI in the test on SK-MEL-2 melanoma of 52.6 µM.

As to `COc1cc2noc(-c3ccccc3)c2cc1OC`, the TGI was greater than 100 µM with A549 NSCLC; greater than 100 µM in the test with ACHN renal; greater than 100 µM in the test on HCC-2998 colon; greater than 100 µM in the test on HCT-15 colon; greater than 100 µM in the test with MOLT-4 leukemia; 94 µM in the test with OVCAR-5 ovarian. Moreover, the TGI in the test on SK-MEL-2 melanoma is greater than 100 µM.

For the compound `CCC(=O)C(C)C1=Nc2nnc(CCCCCCCc3nnc4n3C(=O)C(C(C)C(=O)CC)=N4)n2C1=O` (configuration not stated), the TGI with A549 NSCLC, with ACHN renal, with HCC-2998 colon, in the test on HCT-15 colon, in the test on MOLT-4 leukemia and in the test with OVCAR-5 ovarian was greater than 100 µM throughout. The TGI in the test with SK-MEL-28 melanoma was greater than 100 µM.

Take `CC(=O)OC1CC2C(C)(C)C(=O)C=C[C@]2(C)C2CCC3(C)C(c4ccoc4)C(=O)[C@H]4O[C@]43[C@]12C` (some centres not stated): the TGI was 45.1 µM with ACHN renal; 32.2 µM in the test on HCC-2998 colon; 37.7 µM in the test with HCT-15 colon; 46.6 µM with MOLT-4 leukemia; 42.5 µM in the test on OVCAR-5 ovarian; 43.4 µM with SK-MEL-2 melanoma. In the test with SK-MEL-28 melanoma, this compound returned a TGI of 32.7 µM.

Consider `CN1NC2(CCCCC2)ON=C1c1ccccc1`, for which the TGI in the test on A549 NSCLC, in the test on ACHN renal, in the test on HCT-15 colon, in the test on MOLT-4 leukemia, with OVCAR-5 ovarian and in the test on SK-MEL-28 melanoma was greater than 100 µM each time.

Regarding `NC(=O)N/N=C/C(/C=N/NC(N)=O)[N+](=O)[O-]`, the TGI in the test with A549 NSCLC, in the test on ACHN renal, with OVCAR-5 ovarian, with SK-MEL-2 melanoma and in the test with SK-MEL-28 melanoma was greater than 100 µM in each case.
